Laboratory results published in patent US7763580B2, “Methods for treating conditions associated with the accumulation of excess extracellular matrix” (University of Utah Research Foundation, priority 1999, dated 2010).

Assays:
anti-Thy 1 model = conditions: monotherapy, anti-Thy 1 model (Peters et al.); L-arginine 1% in drinking water; cited from earlier work
[1] = tested on: Normal fetal human mesangial cells; test: Renin-induced TGFβ production by fetal human mesangial cells (ELISA); assay type: cell-based; conditions: for renin-induced increase in TGFβ production: 10^−5 M inhibitor added at zero time with 10^−7 M human recombinant renin, FIG. 3
Description: Normal fetal human mesangial cells (Clonetics Corp., Clonetics, Walkersville, Md.) passaged 5 to 8 times, were plated (3,000 cell/cm^2) in 12 well plates in 2 ml of medium (Mesangial Basal Medium (Clonetics Corp.) containing 5% FCS, 10 μg/ml penicillin and 100 μg/ml streptomycin) and allowed to grow to confluence for 48 hours at 37EC, 5% CO2. Cultures were washed three times using sterile phosphate buffered saline at room temperature and then 2 ml/well of serum free MBM medium to induce quiescence. After 48 hours, the serum-free medium was removed and 2 ml/well of fresh serum-free medium was added. Human recombinant renin (Hoffman-La Roche Ltd., Basel, Switzerland) in concentrations from 10^−6 to 10^−12 M was added to each well. A blank and 5 ng/ml of TGFβ (R & D Systems, Minneapolis, Minn.) were used as controls. Cells and supernatants were harvested by centrifugation after 24 hrs of culture and frozen at ^−70EC until analysis. The total production and release of TGFβ into the culture supernatant was measured using an ELISA kit (R & D Systems). Induction of PAI-1 and fibronectin in the supernatant are also measured using anti-PAI-1 and anti-fibronectin antibodies in an ELISA to provide further confirmation of the inhibition of TGFβ. TGFβ, fibronectin and PAI-1 mRNA are measured using semi-quantitative RT-PCR.
Renin inhibitor Ro42-5892 (Hoffman-LaRoche, Basel, Switzerland), Losartan™ (Merck Pharmaceuticals, West Point, Pa.), Enalapril™ (Sigma Chemical Co., St. Louis, Mo., Prod. No. E6888), or TGFβ1 neutralizing antibody (R & D Systems) were added in the amounts indicated below to separate wells in triplicate to block the renin cascade at different sites after stimulation by renin: • 10^−5 M Renin Inhibitor R042-5892 (Hoffman-LaRoche) • 30 ng/ml Anti-TGFβ1 antibody (R & D Systems, #AB 101 NA) • 30 ng/ml Chicken IgG (control for anti-TGFβ1 antibody, R & D Systems, # AB 101 C) • 10^−5 M Enalapril™ (Sigma Chemical Co., St. Louis, Mo.) • 10^−5 M Losartan™ (Merck Pharmaceuticals, West Point, Pa.)
(§1) These inhibitors were added at zero time with 10^−7 M human recombinant renin (Hoffman-LaRoche).

[2] = tested on: adult human mesangial cells; test: Renin-induced TGFβ and fibronectin production by adult human mesangial cells (ELISA); assay type: cell-based; conditions: for renin-induced increase in TGFβ production: 10^−5 M inhibitor added at zero time with 10^−7 M human recombinant renin, adult cells, FIG. 7
Description: Primary cultures of adult human mesangial cells were grown from human nephrectomy tissues using standard methods. Cells were passaged 4-7 times and then plated (3,000 cell/cm^2) in 12 well plates in 2 ml of medium (Mesangial Basal Medium (Clonetics Corp.) containing 5% FCS, 10 μg/ml penicillin and 100 μg/ml streptomycin) and allowed to grow to 70% confluency for 48 hours at 37EC, 5% CO2. Cultures were washed three times using sterile phosphate buffered saline at room temperature and then 2 ml/well of serum free MBM medium to induce quiescence. After 48 hours, the serum-free medium was removed and 2 ml/well of fresh serum-free medium was added for 24 hours. Human recombinant renin (HrRenin, Hoffman-La Roche Ltd., Basel, Switzerland) in concentrations from 10^−6 to 10^−12 M was added to each well for 24 hours. A blank (no HrRenin) was used as a control. Cells and supernatants were harvested by centrifugation after 24 hrs of culture and frozen at ^−70EC until analysis.
The total production and release of TGFβ into the culture supernatant was measured using an ELISA kit (R & D Systems). Induction of the matrix protein fibronectin (Fn) in the supernatant was measured using anti-fibronectin antibodies in an ELISA to provide further confirmation of induction of TGFβ. Renin-induced induction of TGFβ, fibronectin and PAI-1 mRNA were measured over time using semi-quantitative RT-PCR in a multiplex system where multiple cDNAs are amplified simultaneously according to Dostal et al., Anal. Biochem. 223:239-250 (1994), incorporated by reference herein Determinations were done in triplicate mesangial cell cultures.
Renin inhibitor Ro42-5892 (Hoffman-LaRoche, Basel, Switzerland), Losartan™ (Merck Pharmaceuticals, West Point, Pa.), Enalapril™ (Sigma Chemical Co., St. Louis, Mo., Prod. No. E6888), or TGFβ1 neutralizing antibody (R & D Systems) were added in the amounts indicated below to separate wells in triplicate to block the renin cascade at different sites after stimulation by renin: • 10^−5 M Renin Inhibitor R042-5892 (Hoffman-LaRoche) • 10^−5 M Enalapril™ (Sigma Chemical Co., St. Louis, Mo.) • 10^−5 M Losartan™ (Merck Pharmaceuticals, West Point, Pa.) • Controls included neutralizing antibody to TGFβ (ATG) and control IgG (TgG)
as §1

anti-Thy-1 nephritis [3] = test: Glomerular ECM staining after rtPA in anti-Thy-1 nephritis; assay type: in vivo, Sprague-Dawley rats
Description: (§2) Six Sprague-Dawley rats with were injected with phosphate buffered saline (PBS, as a control) and 18 rats were injected with 300 ug of mouse monoclonal OX7 antibody produced in the laboratory using commercially obtained hybridoma cells (American Type Culture Collecton (Rockville, Md., USA; Peters et al., Kidney Internatl. 54:1570-1580 (1998)) on day 1 to induce anti-Thy-1 nephritis. Injection of the anti rat-thymocyte antibody intravenously causes binding to an epitope in rat glomerular mesangial cells call Thy 1.1. The complement-mediated mesangial cell lysis that follows initiates a cascade of tissue injury, followed by a repair process that involves induction of TGFβ-driven production and deposition of ECM components. […] These alterations favor decreased plasmin generation which decreases matrix turnover and enhances matrix accumulation. Plasmin is the key to mesangial cell matrix turnover (Baricos et al, Kidney Int. 47:1037-1047 (1995)).
Three days after the initial injection, rtPA (Genentech, Inc., San Francisco, Calif.) in a formulation designed for rodent intravenous injection (GenBank E08757) or PBS was injected intravenously. Injections were repeated twice a day from day 3 to day 5. RtPA was injected i.v. at a dose of 1 mg/kg BW (n'6). Controls received saline (n'6). Glomerular staining for ECM matrix proteins (collagen type I and III, fibronection EDA+ and tenascin) and glomerular mRNA levels of TGFβ1, fibronectin and PAI-1 were evaluated at day 6. Localization of rtPA in nephritic glomeruli and the effect of rtPA on glomerular plasmin were investigated. Rats were sacrificed at day 6 and kidney tissues excised, fixed in formalin and frozen for histological analysis.
Kidney tissue sections were stained for extracellular matrix using Periodic Acid Schiff (PAS) using standard procedures and were stained for specific relevant matrix proteins such as Collagen I, Collagen IV, Fibronectin EDA and tenascin using standard immunohistochemical staining procedures. Matrix proteins were scored by image analysis of 30 glomeruli per rat.

nephritic glomeruli = test: Plasmin generation by isolated nephritic glomeruli after rtPA injection; assay type: in vivo, rats; conditions: rtPA injected 10, 20 and 30 minutes before sacrifice; vs disease control
Description: rtPA was injected into nephritic rats 10, 20 and 30 minutes before sacrifice. At sacrifice, glomeruli were isolated and placed in culture with a chromogenic substrate for tPA.

anti-Thy-1 nephritis [4] = test: Glomerular mRNA levels after rtPA in anti-Thy-1 nephritis; assay type: in vivo, Sprague-Dawley rats; conditions: rtPA treated, day 6, FIG. 10
Description: as §2
Three days after the initial injection, rtPA (Genentech, Inc., San Francisco, Calif.) in a formulation designed for rodent intravenous injection (GenBank E08757) or PBS was injected intravenously. Injections were repeated twice a day from day 3 to day 5. […] Glomerular staining for ECM matrix proteins (collagen type I and III, fibronection EDA+ and tenascin) and glomerular mRNA levels of TGFβ1, fibronectin and PAI-1 were evaluated at day 6. […]

[5] = 10^−6M HrRenin, 24 hours, peak of dose response, p<0.05

N=C(N)NCCC[C@H](N)C(=O)O [L-arginine]
reduction of markers of fibrotic disease (anti-Thy 1 model): about 50%

CCCCc1nc(Cl)c(CO)n1Cc1ccc(-c2ccccc2-c2nn[nH]n2)cc1 [Losartan]
renin-induced increase in TGFβ production [1]: does not reduce the renin-induced increase in TGFβ production | renin-induced increase in TGFβ production [2]: does not reduce the renin-induced increase in TGFβ production | reduction of markers of fibrotic disease (anti-Thy 1 model): about 50%

CC(C)(C)S(=O)(=O)C[C@@H](Cc1ccccc1)C(=O)N[C@@H](Cc1c[nH]cn1)C(=O)N[C@@H](CC1CCCCC1)[C@@H](O)[C@@H](O)C1CC1 [Ro 42-5892]
renin-induced increase in TGFβ production [1]: does not reduce the renin-induced increase in TGFβ production | renin-induced increase in TGFβ production [2]: does not reduce the renin-induced increase in TGFβ production

rtPA: recombinant tissue type plasminogen activator (Genentech)
percentage of the glomerular area with positive staining, fibronectin EDA+ (anti-Thy-1 nephritis [3]; rtPA 1 mg/kg BW i.v. twice a day day 3 to 5, day 6, disease control 19±2, p<0.01): 14±1% | percentage of the glomerular area with positive staining, type IV collagen (anti-Thy-1 nephritis [3]; rtPA 1 mg/kg BW i.v. twice a day day 3 to 5, day 6, disease control 27±2, p<0.01): 23±1% | percentage of the glomerular area with positive staining, type I collagen (anti-Thy-1 nephritis [3]; rtPA 1 mg/kg BW i.v. twice a day day 3 to 5, day 6, disease control 33±1, p<0.001): 21±3% | percentage of the glomerular area with positive staining, laminin (anti-Thy-1 nephritis [3]; rtPA 1 mg/kg BW i.v. twice a day day 3 to 5, day 6, disease control 35±2, p<0.001): 25±2% | matrix accumulated in glomeruli (anti-Thy-1 nephritis [3]; tPA vs control, FIG. 8): overall decrease in matrix accumulated | Plasmin generation by nephritic glomeruli (nephritic glomeruli): significantly elevated | Glomerular levels of TGFβ1, FN and PAI-1 mRNA (anti-Thy-1 nephritis [4]): unchanged

B1: HrRenin: Human recombinant renin (Hoffman-La Roche) (protein, UniProt P00797 67-406, looked up)
Renin: LTLGNTTSSVILTNYMDTQYYGEIGIGTPPQTFKVVFDTGSSNVWVPSSKCSRLYTACVYHKLFDASDSSSYKHNGTELTLRYSTGTVSGFLSQDIITVGGITVTQMFGEVTEMPALPFMLAEFDGVVGMGFIEQAIGRVTPIFDNIISQGVLKEDVFSFYYNRDSENSQSLGGQIVLGGSDPQHYEGNFHYINLIKTGVWQIQMKGVSVGSSTLLCEDGCLALVDTGASYISGSTSSIEKLMEALGAKKRLFDYVVKCNEGPTLPDISFHLGGKEYTLTSADYVFQESYSSKKLCTLAIHAMDIPPPTGPTWALGATFIRKFYTEFDRRNNRIGFALAR
TGFβ production by cultured human mesangial cells ([1]; renin 10^−6 to 10^−12 M, 24 hrs, FIG. 2): increases the TGFβ production by cultured human mesangial cells in a dose-dependent manner | increase in Fn production [2, 5]: 1.4 fold | increase in TGFβ production [2, 5]: 2 fold | TGFβ and Fn production, time course ([2]; 10^−7M HrRenin, 24 and 48 hours, p<0.03): significant increases in TGFβ and Fn production at 24 and 48 hours
